Results as given in PMC3814362 (Nucleic Acids Research, 2013).

How the values were obtained:
[1] = target: T1, HflX-ND1 (Escherichia coli, UniProt P25519); assay: mant fluorescence emission; type: binding; settings: labelled compound; 5 µM protein, 1 µM mant-ATP, pH 8.0, 5 mM MgCl2
T1 sequence (P25519 1-120): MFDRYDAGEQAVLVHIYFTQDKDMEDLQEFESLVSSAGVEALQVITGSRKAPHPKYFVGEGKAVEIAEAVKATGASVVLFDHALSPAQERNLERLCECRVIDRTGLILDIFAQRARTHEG

[2] = target: T2, HflX-FL; HflX-WT (EcHflX) (Escherichia coli, UniProt P25519); assay: mant fluorescence emission; type: binding; settings: labelled compound; 5 µM protein, 1 µM mant-ATP, pH 8.0, 5 mM MgCl2
T2 sequence (P25519 1-426): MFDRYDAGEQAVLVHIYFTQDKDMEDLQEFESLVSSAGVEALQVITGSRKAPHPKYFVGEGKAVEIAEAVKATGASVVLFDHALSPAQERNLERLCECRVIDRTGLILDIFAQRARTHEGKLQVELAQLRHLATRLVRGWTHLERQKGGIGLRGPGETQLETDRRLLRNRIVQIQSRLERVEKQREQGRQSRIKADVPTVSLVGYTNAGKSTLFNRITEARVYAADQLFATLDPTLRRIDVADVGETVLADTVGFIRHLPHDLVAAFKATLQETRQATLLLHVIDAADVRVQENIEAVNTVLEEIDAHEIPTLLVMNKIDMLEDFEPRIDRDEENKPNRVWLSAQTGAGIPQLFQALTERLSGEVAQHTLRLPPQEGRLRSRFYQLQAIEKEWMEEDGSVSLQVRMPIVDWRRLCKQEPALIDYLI

Structure (SMILES): CNc1ccccc1C(=O)O[C@H]1[C@@H](O)[C@H](n2cnc3c(N)ncnc32)O[C@@H]1COP(=O)(O)OP(=O)(O)OP(=O)(O)O [mant-ATP]
- mant fluorescence emission (ex 355 nm) [1]: HflX-ND1, like the full-length protein, binds mant-ATP
- mant fluorescence emission (ex 355 nm) [2]: HflX-ND1, like the full-length protein, binds mant-ATP
